The target of assay [1] is PDGFRβ (Rattus norvegicus (Rat), UniProt Q05030). In words: PDGFRβ Cellular Assay (PDGFRb P-Y751 HTRF in A10 cells stimulated with PDGF-BB). It is filed as cell-based. How it is done:
(§1) II. Methods and Procedures
Cell Culture and Preparation: Cells are cultured according to ATCC procedure (5) with the addition of the antibiotic penicillin-streptomycin. If working from frozen, cells should be thawed according to ATCC procedure. Depending on the cell density of frozen vial, cells will need time to recover from thaw. An 80% confluent T75 flask should be enough for one 384 well plate.
Stock Solutions: Rat PDGFBB. A 100 ug/mL stock is prepared by reconstituting 50 ug in 500 uL of 4 mM HCl and 0.1% BSA. It can be stored for a month at 4° C., or aliquoted out and frozen in the −20/−80° C. to avoid multiple free-thaw cycles.
(§2) Freshly Prepared Solutions:
1× Cisbio cell lysis buffer. The cell lysis buffer is diluted 4-fold with molecular grade water. The blocking agent is then diluted 25-fold in the diluted lysis buffer.
Antibody solutions. Equal amounts d2 and cryptate antibody are diluted 20-fold in detection buffer.
Rat PDGFBB. A working stock of 100 ng/mL is created from the stock solution in 10% FBS culture media.
Step 1: Plating Cells: Media from the A10 cell flask is aspirated. The cells are rinsed with PBS and then trypsinized to disperse the cell layer. The cells are then pelleted are resuspended to 1.25e5 cells/mL. […] Plates are covered and placed in the incubator (37° C. 5% CO2) overnight to allow cells to adhere.
Step 2: Compound Dispense: Approximately 18 hours after plating, dispense 40 nL compound onto cells using Echo. Column 12 is the neutral control DMSO, column 24 is the inhibitor control 10 mM Imatinib (10 uM final assay concentration). The plate is returned to the incubator for 3 hours.
After 10 minutes the media is removed by flicking the plate.
Step 4: Cell lysis and antibody addition: 20 uL lysis buffer per well is added to the plate via Tempest. 5 uL antibody solution is added per well via the Tempest. The plate is placed on the shaker at 230 rpm for 1 hour at room temperature.
Step 5: Detection: The plate is read using the HTRF module on the BMG Pherastar. Data is analyzed using Genedata Screener.
(§3) III. Calculations and Formulas
% Inhibition: % Inhibition=(NC−sample)/(NC−PC)*100 where NC is the mean of negative control (reactions without inhibitor), and PC is the mean of positive control (10 μM imatinib).
IC50 values are determined from a 4-parameter fit, using the following equation: Y=Bottom+(Top−Bottom)/(1+10((Log IC50−X)*Hill slope)), where X=log10 of the compound concentration; top can be defined by PC; bottom defined by NC.
For orientation: Time-resolved FRET reads energy transfer from a long-lived donor to a nearby acceptor.

Assay [2] deals with VEGFR2, unphosphorylated (Homo sapiens (Human), UniProt P35968). As to the kind of experiment: VEGFR ADP GLO Assay. It is filed as biochemical. The procedure:
as §1
Assay buffer stock contains 50 mM HEPES pH7.5, 10 mM MgCl2, 0.01% Brij-35, and 1 mM EGTA.
Unphosphorylated VEGFR2. […] Store at −80° C. in aliquots.
Sonicate 10 mg/ml Srctide solution for 10 minutes and then vacuum filter.
Freshly Prepared Solutions
2× kinase solution. Make a working solution of 10 nM unphosphorylated VEGFR2 in Assay buffer. Vacuum filter 2× kinase solution prior to running assay. Keep on ice until use.
2× substrate/ATP solution. Make a working solution of 2 mg/mL srctide and 2.4 mM ATP in Assay buffer. Keep on ice until use.
Step 1. Dispensing inhibitors/controls: Using Echo, dispense 10 nL/well compound serial dilutions in DMSO to columns 1-22 (in 384-well plates) or columns 1-44 (in 1536-well plates). Dilution series=11 pt, 3-fold dilutions. The top compound concentration in the source plate is 4 mM. The top compound concentration in the assay plate is 10 uM. Using Echo, dispense 10 nl/well DMSO to column 23 (in 384-well plates) or columns 45-47 (in 1536-well plates). […] These wells will serve as positive control wells.
Step 2. Pre-incubation of inhibitors with kinase: Add 2 μL/well 2× kinase solution. Centrifuge at 1000 rpm for 1 min. Incubate at room temperature for 30 min.
Step 3. Kinase cascade reaction: Add 2 μL/well 2× substrate/ATP solution to initiate kinase reactions. Centrifuge at 1000 rpm for 1 min. Incubate at room temperature for 180 min.
Final concentrations of components in the assay:
Step 4. Quench: Add 2 uL/well ADP Glo Reagent+0.05% CHAPS. Centrifuge at 1000 rpm for 1 min; Incubate at room temperature for one hour.
Step 5. Detection: Add 2 uL/well Kinase Detection Reagent+0.05% CHAPS. Centrifuge at 1000 rpm for 1 min; Incubate at room temperature for 1 hour; Read Luminescence on a plate reader.
as §3
IC50 values are determined from a 4-parameter fit, using the following equation: Y=Bottom+(Top−Bottom)/(1+10^(Log IC50-X)*Hill slope) where X=log10 of the compound concentration; top can be defined by PC; bottom defined by NC.
Background: ADP-Glo turns the ADP formed in a reaction into a luminescent signal.

Assay [3] has as its target His6-TEV-PDGFRβ (557-1016) (Homo sapiens (Human), UniProt P09619). In words: PDGFRβ HTRF Assay. Format: biochemical. Conditions: read-out: PDGFR HTRF IC50. How it is done: Instrumentation: a. Compound liquid handling: LabCyte Echo; b. Reagent liquid handling: Thermo Scientific Multidrop Combi; c. BMG PHERAStar multilabel plate reader.
Protein Reagent: His6-TEV-PDGFRβ Protein Prep prepared at Accelagen.
as §1
Assay buffer stock solution, contains 50 mM Hepes, 10 mM MgCl2, 1 mM EGTA, and 0.01% Brij-35, 0.01% ovalbumin, 2 mM DTT at pH 7.5, in molecular biology grade water. Store at room temperature.
DTT, 2 M in molecular biology grade water, store at −20° C. in aliquots.
Ovalbumin, 10% or 100 mg/mL, prepare fresh on experimental day.
PDGFRβ, 116 μM (PDGFRb_08 Prep 02), produced at Accelagen. Store at −80° C. in aliquots.
TK-biotin peptide, […] in molecular biology grade water, store at −20° C. in aliquots.
ATP, 100 mM in molecular biology grade water, store at −20° C. in aliquots.
HTRF KinEASE-TK kit: Allow the contents of the Cisbio kit to warm up to room temperature before use. This kit contains HTRF detection buffer, TK-Antibody labeled with Eu^3+-cryptate, TK-substrate biotin and Streptavidin-XL665.
TK Substrate-Biotin, reconstitute 500 μg lyopholized with 574 μL molecular biology grade water to prepare a 500 μM stock; After use, aliquot the rest and store at −20° C.
TK Antibody-Cryptate, reconstitute lyophilized with 1 mL of molecular biology grade water (100× solution) then add 99 mL detection buffer to prepare a ready to use TK-antibody-cryptate solution; the concentration of the TK-antibody-cryptate reagent is not known. After use, aliquot the rest and store at −20° C.
Streptavidin-XL665, reconstitute 3 mg lyophilized with 3 mL molecular biology grade water to prepare a 1 mg/mL or 16.67 μM stock; MW=60 kDa; After use, aliquot the rest and store at −20° C.
as §2
Assay buffer. Dilute 5× Kinase buffer 5-fold with molecular biology grade water and add DTT to 2 mM and ovalbumin to 0.1 mg/mL (or 0.01%).
2× protein solution. Make a working solution of […] PDGFRβ in assay buffer. Keep on ice until use to maintain enzyme stability.
2× substrate solution. Make a working solution of 1.6 mM ATP and 1 μM TK-substrate biotin peptide in assay buffer.
3× quench/detection solution. Make a working solution of 0.1875 μM SA-XL665 and the TK-antibody cryptate diluted by 12 of total quench/detection volume in assay buffer.
Keep final streptavidin/biotin ratio at 1 to 8.
Example of 3× quench/detection solution preparation: 8 mL total volume.
TK antibody-cryptate in detection buffer—4000 μL
The kinase reaction is stopped by the addition of the detection reagents which contain EDTA (detection step).
Assay in white ProxiPlate 384-well
Step 1. Dispensing inhibitors/DMSO and low control: Using the ECHO 555 acoustic dispenser, spot desired compound serial dilutions in DMSO, NEAT DMSO to represent the uninhibited enzyme control, and 10 μM final [imatinib] to the represent the 100% inhibited enzyme control
Step 2. PDGFRβ E+I pre-incubation: Add 2 μL 2× protein solution to columns 1-24 using the Multidrop Combi. Centrifuge at 1000 rpm for 1 min. Incubate 30 min at RT
Step 2. Enzymatic reaction: Add 2 μL substrate solution to columns 1-24 to initiate the reaction using the Multidrop Combi; cover/seal the assay plate to reduce evaporation. Centrifuge at 1000 rpm for 1 min. Incubate at room temperature for 3 hours.
Step 3. Quench/Detection: Add 2 μl 3× quench/detection solution to columns 1-24 using the Multidrop Combi; cover/seal the plate. Centrifuge 1 min 1000 rpm. Incubate at RT for 60 min. Read the plate in PHERAstar (or similar instrument) on HTRF setting at excitation 337 nm—dual emission—665/620 nm ratio.
as §3
HTRF ratio values calculated by the instrument (Ratio is acceptor counts/donor counts*10,000) is exported from the plate reader and used in data analysis. […] Assay statistics can include Robust Z′ and Signal to Background.
% Inhibition Calculation: Percent inhibition will be calculated for sample wells based on the equation: […]

pIC50: −log10 of the molar value. Read-outs that look alike come from different tables or passages of the source. Where only a bound is given, the exact number is not on record here.

Sequence of VEGFR2, unphosphorylated (P35968 20-1356): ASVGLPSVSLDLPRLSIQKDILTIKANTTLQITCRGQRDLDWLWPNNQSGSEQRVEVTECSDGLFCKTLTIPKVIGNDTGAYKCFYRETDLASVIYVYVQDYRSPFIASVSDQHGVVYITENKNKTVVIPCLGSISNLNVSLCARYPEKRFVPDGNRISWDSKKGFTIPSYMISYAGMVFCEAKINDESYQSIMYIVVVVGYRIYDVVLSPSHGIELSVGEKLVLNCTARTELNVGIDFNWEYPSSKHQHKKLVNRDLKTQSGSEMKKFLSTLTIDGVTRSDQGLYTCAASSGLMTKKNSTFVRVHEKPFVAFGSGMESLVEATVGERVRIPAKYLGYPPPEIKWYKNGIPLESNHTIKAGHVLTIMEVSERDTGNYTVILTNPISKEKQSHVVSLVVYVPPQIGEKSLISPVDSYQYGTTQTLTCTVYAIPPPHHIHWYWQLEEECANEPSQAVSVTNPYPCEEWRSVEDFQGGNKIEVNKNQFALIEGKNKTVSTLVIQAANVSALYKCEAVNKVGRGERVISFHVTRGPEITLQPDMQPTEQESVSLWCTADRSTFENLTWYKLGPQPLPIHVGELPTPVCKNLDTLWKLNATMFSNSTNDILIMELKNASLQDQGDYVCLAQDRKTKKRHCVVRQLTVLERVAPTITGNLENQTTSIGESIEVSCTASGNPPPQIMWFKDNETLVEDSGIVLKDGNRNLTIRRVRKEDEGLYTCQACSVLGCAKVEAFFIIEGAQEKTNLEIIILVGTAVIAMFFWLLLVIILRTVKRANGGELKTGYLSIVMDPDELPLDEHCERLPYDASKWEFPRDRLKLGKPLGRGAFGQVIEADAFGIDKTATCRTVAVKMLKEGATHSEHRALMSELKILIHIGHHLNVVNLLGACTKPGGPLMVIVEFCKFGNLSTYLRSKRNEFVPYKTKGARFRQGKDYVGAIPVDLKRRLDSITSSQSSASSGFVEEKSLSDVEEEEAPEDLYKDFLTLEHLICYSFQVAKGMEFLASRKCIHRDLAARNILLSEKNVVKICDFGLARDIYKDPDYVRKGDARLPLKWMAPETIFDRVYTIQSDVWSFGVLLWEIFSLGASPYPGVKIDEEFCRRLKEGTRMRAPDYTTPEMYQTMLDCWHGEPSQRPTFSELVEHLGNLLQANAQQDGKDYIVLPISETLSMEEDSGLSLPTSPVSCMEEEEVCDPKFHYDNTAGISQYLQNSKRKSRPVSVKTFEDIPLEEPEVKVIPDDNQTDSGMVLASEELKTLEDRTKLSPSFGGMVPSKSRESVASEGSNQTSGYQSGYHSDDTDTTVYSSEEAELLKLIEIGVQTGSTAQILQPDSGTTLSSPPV
Sequence of PDGFRβ (Q05030 32-1097): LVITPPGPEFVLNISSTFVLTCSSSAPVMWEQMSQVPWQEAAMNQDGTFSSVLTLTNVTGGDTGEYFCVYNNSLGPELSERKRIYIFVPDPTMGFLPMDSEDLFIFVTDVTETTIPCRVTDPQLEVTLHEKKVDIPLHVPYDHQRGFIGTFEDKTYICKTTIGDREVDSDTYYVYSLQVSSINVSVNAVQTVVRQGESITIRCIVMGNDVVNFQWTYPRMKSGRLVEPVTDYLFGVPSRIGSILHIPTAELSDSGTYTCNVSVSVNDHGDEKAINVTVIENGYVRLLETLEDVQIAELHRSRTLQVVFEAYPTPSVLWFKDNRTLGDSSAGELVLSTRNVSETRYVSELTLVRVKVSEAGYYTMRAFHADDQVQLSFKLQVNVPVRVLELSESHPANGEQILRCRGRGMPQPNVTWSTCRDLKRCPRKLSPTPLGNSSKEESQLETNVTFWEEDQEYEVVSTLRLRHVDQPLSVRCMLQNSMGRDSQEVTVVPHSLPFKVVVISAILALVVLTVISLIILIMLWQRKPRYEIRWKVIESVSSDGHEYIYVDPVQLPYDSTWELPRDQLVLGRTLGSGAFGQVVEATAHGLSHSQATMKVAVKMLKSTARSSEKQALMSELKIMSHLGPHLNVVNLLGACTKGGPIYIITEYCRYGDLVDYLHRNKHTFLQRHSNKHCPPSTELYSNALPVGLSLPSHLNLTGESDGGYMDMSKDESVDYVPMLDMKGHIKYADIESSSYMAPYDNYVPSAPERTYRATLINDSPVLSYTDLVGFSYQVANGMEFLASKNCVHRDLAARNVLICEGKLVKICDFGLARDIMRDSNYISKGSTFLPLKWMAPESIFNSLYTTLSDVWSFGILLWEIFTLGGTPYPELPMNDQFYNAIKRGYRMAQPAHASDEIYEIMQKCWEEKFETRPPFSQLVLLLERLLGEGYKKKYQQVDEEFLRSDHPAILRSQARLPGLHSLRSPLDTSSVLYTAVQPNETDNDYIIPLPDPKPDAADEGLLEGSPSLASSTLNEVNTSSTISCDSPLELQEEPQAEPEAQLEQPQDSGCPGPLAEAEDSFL
Sequence of His6-TEV-PDGFRβ (557-1016) (P09619 557-1016): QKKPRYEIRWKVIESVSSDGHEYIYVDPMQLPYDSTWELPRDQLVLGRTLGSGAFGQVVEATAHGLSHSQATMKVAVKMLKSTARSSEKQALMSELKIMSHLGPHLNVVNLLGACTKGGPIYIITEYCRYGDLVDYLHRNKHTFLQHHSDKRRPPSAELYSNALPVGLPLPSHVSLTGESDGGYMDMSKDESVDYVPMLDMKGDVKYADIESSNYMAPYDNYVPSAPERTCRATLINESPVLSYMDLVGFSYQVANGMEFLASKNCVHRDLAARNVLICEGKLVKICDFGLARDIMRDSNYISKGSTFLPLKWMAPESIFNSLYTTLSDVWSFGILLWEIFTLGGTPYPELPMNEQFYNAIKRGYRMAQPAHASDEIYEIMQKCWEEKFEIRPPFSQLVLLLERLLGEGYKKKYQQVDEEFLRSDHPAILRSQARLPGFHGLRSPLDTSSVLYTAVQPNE

In general, pIC50 refers to the negative decadic logarithm of the IC50, by convention in mol/L. `CCOC1CN(CC(=O)Nc2cnc(C)c(NC(=O)c3cnn4cc(-c5cccnc5OC)sc34)c2)C1` [Example 401]: in assay [1] (read-out: PDGFR Cellular IC50), the pIC50 was 7.99.

Consider `COc1ncccc1-c1cn2ncc(C(=O)Nc3cc(NC(=O)CN4CC(OC)C4)cnc3C)c2s1` [Example 400, N-(5-(2-(3-methoxyazetidin-1-yl)acetamido)-2-methylpyridin-3-yl)-2-(2-methoxypyridin-3-yl)pyrazolo[5,1-b]thiazole-7-carboxamide], for which the negative-log IC50 (pIC50) in assay [1] (PDGFR Cellular IC50) was 7.83; in assay [2] it was under 5.12.

`Cc1ncc(NC(=O)CN2C[C@H](C)O[C@@H](C)C2)cc1NC(=O)c1cnn2cc(-c3ccc[nH]c3=O)sc12` (relative stereo) [Example 370, N-(5-(2-(trans-2,6-dimethylmorpholino)acetamido)-2-methylpyridin-3-yl)-2-(2-oxo-1,2-dihydropyridin-3-yl)pyrazolo[5,1-b]thiazole-7-carboxamide]: the negative logarithm of the IC50 (pIC50) in assay [3] was 9.00; in assay [1] (PDGFR Cellular IC50), 6.26; in assay [2], under 5.12.

Regarding `COC1CCN(CC(=O)Nc2cnc(C)c(NC(=O)c3cnn4cc(-c5cn(C)nc5C)sc34)c2)C1` (stereo not drawn) [Example 439, 2-(1,3-Dimethyl-1H-pyrazol-4-yl)-N-(5-(2-(3-methoxypyrrolidin-1-yl)acetamido)-2-methylpyridin-3-yl)pyrazolo[5,1-b]thiazole-7-carboxamide], the pIC50 in assay [1] (PDGFR Cellular IC50) was 7.91; in assay [2], under 5.12.

`Cc1cc(C(=O)NCCN2CCCC23CCCC3)sc1NC(=O)c1cnn2cc(-c3cnn(C)c3)sc12` [Example 196, N-(5-((2-(1-azaspiro[4.4]nonan-1-yl)ethyl)carbamoyl)-3-methylthiophen-2-yl)-2-(1-methyl-1H-pyrazol-4-yl)pyrazolo[5,1-b]thiazole-7-carboxamide]: the negative logarithm of the IC50 (pIC50) in assay [3] is 8.85; in assay [1] (PDGFR Cellular IC50), 7.07; in assay [2] it was under 5.12.

Consider `Cc1ncc(NC(=O)CN2CCC[C@@H]2C)cc1NC(=O)c1cnn2cc(-c3cn(C)nc3C)sc12` [Example 438, (S)-2-(1,3-dimethyl-1H-pyrazol-4-yl)-N-(2-methyl-5-(2-(2-methylpyrrolidin-1-yl)acetamido)pyridin-3-yl)pyrazolo[5,1-b]thiazole-7-carboxamide], for which the negative-log IC50 (pIC50) was 8.43 in assay [1] (PDGFR Cellular IC50) and under 5.12 in assay [2].

For `COCCn1cc(-c2cn3ncc(C(=O)Nc4cc(NC(=O)CN5CC[C@@H](C)C5)cnc4C)c3s2)cn1` (single isomer, unassigned) [Example 327, (R*)-2-(1-(2-methoxyethyl)-1H-pyrazol-4-yl)-N-(2-methyl-5-(2-(3-methylpyrrolidin-1-yl)acetamido)pyridin-3-yl)pyrazolo[5,1-b]thiazole-7-carboxamide], the pIC50 was 8.00 in assay [1] (read-out: PDGFR Cellular IC50) and under 5.12 in assay [2].

Take `Cc1ncc(NC(=O)CN2CCC[C@H]2C)cc1NC(=O)c1cnn2cc(-c3cn(C)nc3C)sc12` [Example 440, (R)-2-(1,3-dimethyl-1H-pyrazol-4-yl)-N-(2-methyl-5-(2-(2-methylpyrrolidin-1-yl)acetamido)pyridin-3-yl)pyrazolo[5,1-b]thiazole-7-carboxamide]: the negative logarithm of the IC50 (pIC50) is 8.80 in assay [1] (PDGFR Cellular IC50) and under 5.12 in assay [2].

Turning to `COCCn1cc(-c2cn3ncc(C(=O)Nc4cc(NC(=O)CN5CC[C@H](C)C5)cnc4C)c3s2)cn1` (single isomer, unassigned) [Example 328, (S*)-2-(1-(2-methoxyethyl)-1H-pyrazol-4-yl)-N-(2-methyl-5-(2-(3-methylpyrrolidin-1-yl)acetamido)pyridin-3-yl)pyrazolo[5,1-b]thiazole-7-carboxamide], the pIC50 in assay [1] (read-out: PDGFR Cellular IC50) was 8.15; in assay [2] it was under 5.12.

Take `COc1ncccc1-c1cn2ncc(C(=O)Nc3cc(NC(=O)CN4C[C@H](CO)O[C@@H](C)C4)cnc3C)c2s1` (stereo in doubt) [Example 381, N-(5-(2-(cis-2-(hydroxymethyl)-6-methylmorpholino)acetamido)-2-methylpyridin-3-yl)-2-(2-methoxypyridin-3-yl)pyrazolo[5,1-b]thiazole-7-carboxamide]: the pIC50 in assay [1] (read-out: PDGFR Cellular IC50) is 7.80; in assay [2] it was under 6.08.

(Values after patent US20240109917A1 (ACTELION PHARMACEUTICALS LTD, priority 2020, published 2024).)
